Reference: the NIST ThermoML archive (doi:10.1016/j.jct.2016.04.003)

Experiment: xn = mol fraction of the nth substance listed
Conditions: for surface tension liquid-gas: Drop volume; for viscosity / speed of sound / mass density: 99 kPa, Liquid; for viscosity: Capillary tube (Ostwald / Ubbelohde) method; for speed of sound: Frequency=3 MHz, Sing-around technique in a fixed-path interferometer; for mass density: Vibrating tube method

CCCC[n+]1ccccc1.F[B-](F)(F)F [1-butylpyridinium tetrafluoroborate] + O
Conditions | mass density [kg/m3] | speed of sound [m/s] | surface tension liquid-gas [mN/m] | viscosity [mPa·s]
293.15 K, x1 = 0.0115 | – | – | 57.1 | –
293.15 K, x1 = 0.0165 | 1028.6 | 1539 | – | –
293.15 K, x1 = 0.0185 | – | – | 54.3 | –
293.15 K, x1 = 0.0271 | – | – | 52.5 | –
293.15 K, x1 = 0.0372 | – | – | 51.3 | –
293.15 K, x1 = 0.0379 | 1058 | 1572.7 | – | –
293.15 K, x1 = 0.0456 | – | – | 50.7 | –
293.15 K, x1 = 0.047 | – | – | – | 1.379
293.15 K, x1 = 0.0863 | 1100.2 | 1606.7 | – | –
293.15 K, x1 = 0.0942 | – | – | 49.2 | –
293.15 K, x1 = 0.095 | – | – | – | 1.806
293.15 K, x1 = 0.101 | 1109.3 | 1612.3 | – | –
293.15 K, x1 = 0.134 | 1125.6 | 1620.9 | – | –
293.15 K, x1 = 0.1907 | – | – | 48.7 | –
293.15 K, x1 = 0.2001 | – | – | – | 3.439
293.15 K, x1 = 0.243 | 1158.2 | 1630 | – | –
293.15 K, x1 = 0.2846 | – | – | 48.3 | –
293.15 K, x1 = 0.289 | 1167 | 1629.4 | – | –
293.15 K, x1 = 0.2912 | – | – | – | 5.459
293.15 K, x1 = 0.34 | – | – | 48.3 | –
293.15 K, x1 = 0.3456 | 1175.6 | 1627.7 | – | –
293.15 K, x1 = 0.3866 | – | – | 48 | –
293.15 K, x1 = 0.4015 | – | – | – | 10.4
293.15 K, x1 = 0.4217 | 1184.5 | 1624.5 | – | –
293.15 K, x1 = 0.4807 | – | – | – | 15.2
293.15 K, x1 = 0.486 | – | – | 47.7 | –
293.15 K, x1 = 0.5485 | 1195.4 | 1619.7 | – | –
293.15 K, x1 = 0.5777 | – | – | 47.5 | –
293.15 K, x1 = 0.5815 | – | – | – | 23.72
293.15 K, x1 = 0.6029 | 1199 | 1618 | – | –
293.15 K, x1 = 0.6641 | – | – | – | 34.53
293.15 K, x1 = 0.6943 | – | – | 47.3 | –
293.15 K, x1 = 0.7232 | 1205.7 | 1614.9 | – | –
293.15 K, x1 = 0.7779 | – | – | 47 | –
293.15 K, x1 = 0.7855 | – | – | – | 67.74
293.15 K, x1 = 0.8005 | 1209.3 | 1613.5 | – | –
293.15 K, x1 = 0.835 | – | – | 46.8 | –
293.15 K, x1 = 0.8575 | 1211.7 | 1612.8 | – | –
293.15 K, x1 = 0.8875 | – | – | – | 121.1
293.15 K, x1 = 0.925 | – | – | 46.8 | –
293.15 K, x1 = 0.9305 | – | – | – | 149.6
293.15 K, x1 = 0.9315 | 1214.5 | 1612 | – | –
293.15 K, x1 = 0.9705 | – | – | – | 189.6
293.15 K, x1 = 1 | 1217.1 | 1611.5 | 46.9 | 220.5
303.15 K, x1 = 0.0115 | – | – | 56.4 | –
303.15 K, x1 = 0.0165 | 1025.3 | 1552 | – | –
303.15 K, x1 = 0.0185 | – | – | 54 | –
303.15 K, x1 = 0.0271 | – | – | 52.1 | –
303.15 K, x1 = 0.0372 | – | – | 51 | –
303.15 K, x1 = 0.0379 | 1053.9 | 1576.9 | – | –
303.15 K, x1 = 0.0456 | – | – | 50.4 | –
303.15 K, x1 = 0.047 | – | – | – | 1.082
303.15 K, x1 = 0.0863 | 1094.8 | 1600.1 | – | –
303.15 K, x1 = 0.0942 | – | – | 49.1 | –
303.15 K, x1 = 0.095 | – | – | – | 1.333
303.15 K, x1 = 0.101 | 1103.7 | 1603.2 | – | –
303.15 K, x1 = 0.134 | 1119.5 | 1608.1 | – | –
303.15 K, x1 = 0.1907 | – | – | 48.5 | –
303.15 K, x1 = 0.2001 | – | – | – | 2.475
303.15 K, x1 = 0.243 | 1151.3 | 1610.7 | – | –
303.15 K, x1 = 0.2846 | – | – | 48.1 | –
303.15 K, x1 = 0.289 | 1159.9 | 1608.8 | – | –
303.15 K, x1 = 0.2912 | – | – | – | 4.217
303.15 K, x1 = 0.34 | – | – | 47.9 | –
303.15 K, x1 = 0.3456 | 1168.3 | 1606.1 | – | –
303.15 K, x1 = 0.3866 | – | – | 47.6 | –
303.15 K, x1 = 0.4015 | – | – | – | 7.329
303.15 K, x1 = 0.4217 | 1177.2 | 1602.7 | – | –
303.15 K, x1 = 0.4807 | – | – | – | 10.67
303.15 K, x1 = 0.486 | – | – | 47.3 | –
303.15 K, x1 = 0.5485 | 1188 | 1597.4 | – | –
303.15 K, x1 = 0.5777 | – | – | 47 | –
303.15 K, x1 = 0.5815 | – | – | – | 15.59
303.15 K, x1 = 0.6029 | 1191.7 | 1595.6 | – | –
303.15 K, x1 = 0.6641 | – | – | – | 22.31
303.15 K, x1 = 0.6943 | – | – | 46.7 | –
303.15 K, x1 = 0.7232 | 1198.5 | 1592.3 | – | –
303.15 K, x1 = 0.7779 | – | – | 46.5 | –
303.15 K, x1 = 0.7855 | – | – | – | 41.77
303.15 K, x1 = 0.8005 | 1202.2 | 1590.7 | – | –
303.15 K, x1 = 0.835 | – | – | 46.2 | –
303.15 K, x1 = 0.8575 | 1204.6 | 1589.7 | – | –
303.15 K, x1 = 0.8875 | – | – | – | 72.76
303.15 K, x1 = 0.925 | – | – | 46.2 | –
303.15 K, x1 = 0.9305 | – | – | – | 90.38
303.15 K, x1 = 0.9315 | 1207.6 | 1588.9 | – | –
303.15 K, x1 = 0.9705 | – | – | – | 106.5
303.15 K, x1 = 1 | 1210.3 | 1588.1 | 46.3 | 119.5
